Source: article PMC9102668, “Highly Cytotoxic Osmium(II) Compounds and Their Ruthenium(II) Analogues Targeting Ovarian Carcinoma Cell Lines and Evading Cisplatin Resistance Mechanisms” (International Journal of Molecular Sciences, 2022)

Legend:
Assay type in all cases: cell-based
[1] = tested on: all cancer cell lines; experiment: Mean IC50 (MTT assay) for all cancer cell lines
Experimental: Thus, it can be concluded that the biological activity is mediated by a longer chain (butoxy) at the meta-position, whereas the ortho- and para-positions are more suitable with a shorter chain (ethoxy). To have a further look at the influence of the different ligand systems and substitution patterns, all β-Hydroxydithiocinnamic acid alkyl esters were tested under same conditions as their derived ruthenium(II) complexes (Figure 5B, Supplementary Table S3). […] All ligands are less cytotoxic than Cisplatin itself and therefore the metal(II) center is necessary for the high cytotoxic activity, what is in clear contrast to the literature for O,S-chelating ruthenium(II) or osmium(II) compounds with thiomaltol ligand [48, 71] but confirmed for Ru(II)/Os(II) compounds with N,N-bidentate glycosyl heterocyclic ligands. This is exemplarily shown by the comparison of mean IC50 values for Cisplatin, L14, and Ru14 (Supplementary Figure S8).
Ovarian cancer cell lines were cultured under standard conditions (5% CO2, 37 °C, 90% humidity) in RPMI medium supplemented with 10% FCS, 100 U/mL penicillin and 100 µg/mL streptomycin (Life Technologies, Dreieich, Germany). […] The proportion of viable cells was quantified by the MTT assay and after background subtraction relative values compared to the mean of medium controls were calculated. […]

[2] = tested on: Fibroblasts; experiment: IC50 on non-cancerous cell cultures; details: normal primary short-term cell culture
[3] = tested on: MCF10A; experiment: IC50 on non-cancerous cell cultures; details: non-cancerous breast epithelial cell line
[4] = tested on: Keratinocytes; experiment: IC50 on non-cancerous cell cultures; details: normal primary short-term cell culture
[5] = tested on: A2780 and SKOV3 cells and the resistant subcultures; experiment: Cell cycle distribution, PI staining and FACS; details: 48 h treatment, 24 h recovery
Experimental: The reduced viability under treatment, as measured by the MTT assay, can be a result of cell cycle arrest and/or increased cell death. To further evaluate the anticancer properties of the ruthenium(II) complexes we measured cell cycle distribution and cell death rates after treatment with Ru3 or Ru14. After seeding and attaching, the cells were treated for 48 h with different concentrations of substances. For cell cycle distribution measurements, a recovery phase of 24 h was added after treatment, and cells were fixed and stained with PI for the DNA content. Arresting of cells in specific cell cycle phases gives them time to resolve the DNA damage (G1 arrest) or is an initial step to apoptosis if DNA damage is too severe (G2/M arrest).
(§1) To examine cell cycle distribution and cell death rates, 30,000 cells were seeded in 12 well plates. After attaching for 24 h cells were treated with Cisplatin, Ru3 and Ru14 for 48 h at various concentrations for cell cycle and cell death analyses. For cell death analysis, immediately after treatment cells were stained with Propidium Iodid (PI) (1 µg/mL) on ice and the number of dead cells was measured using BD Canto II. For cell cycle distribution, cells recovered for 24 h after treatment. Afterwards, cells were fixed in ice-cold, 50% EtOH for 24 h at −20 °C. For DNA staining, fixed cells were incubated in PBS with 0.05% Triton-X, 0.1 µg/mL RNaseA and 50 µg/mL PI for 1 h at 4 °C in dark. DNA content was measured using BD Canto II.

[6] = tested on: A549; experiment: MTT assay (CellTiter96), cytotoxic activity; details: lung carcinoma cell line, 48 h incubation
Experimental: (§2) The biological behaviour of all substances was characterized by their cytotoxic activity against a panel of cell lines enabling an understanding of the structure-activity relationship. Cytotoxic activity was determined on ovarian carcinoma cell lines SKOV3 and A2780 as well as their Cisplatin resistant analogues (SKOV3cis and A2780cis) and the lung carcinoma cell line A549. Due to a low solubility in water, dmso is used as a solvent for the preparation of a dilution series in cell culture experiments. The toxic influence of dmso was determined earlier and experiments were carried out with 0.5% dmso in cell culture media and this concentration was used as reference sample in each MTT assay (details: Section 3). […] Resistance factors (RF) were determined for all substances (for IC50 values and RF of β-Hydroxydithiocinnamic acid esters L1–L18, see Tables S2 and S3, Supplementary part). All investigated ruthenium(II) compounds show lower RF values than Cisplatin on ovarian carcinoma cell lines, ranging from 0.2 to 1.5 (Table 3). Whereas the IC50 values on the non-resistant cell lines are in most cases higher than the IC50 of the reference substance, no increase of IC50 values is observed for the resistant cell lines. Contrary, eight ruthenium complexes show lower IC50 values on SKOV3cis than Cisplatin and four compounds on A2780cis. Thus, it can be concluded that these compounds are able to bypass the Cisplatin resistance mechanism in these cell lines pointing to a different mechanism of action.
(§3) Ovarian cancer cell lines were cultured under standard conditions (5% CO2, 37 °C, 90% humidity) in RPMI medium supplemented with 10% FCS, 100 U/mL penicillin and 100 µg/mL streptomycin (Life Technologies, Dreieich, Germany). Cisplatin (Sigma, Taufkirchen, Germany) was freshly dissolved at 1 mg/mL in 0.9% NaCl solution and diluted appropriately. New ruthenium(II) complexes and ligands were dissolved in dmso. Platinum-resistant A2780 and SKOV3 cells were established by repeated rounds of 3-day incubations with increasing amounts of Cisplatin starting with 0.1 µM. The concentration was doubled after 3 incubations, interrupted by recovery phases with normal medium. […] Determinations of IC50 values were carried out using the CellTiter96 non-radioactive proliferation assay (MTT assay, Promega, Mannheim, Germany). After seeding 5000 cells per well in a 96-well plate, cells were allowed to attach for 24 h and were incubated for 48 h with different concentrations of the substances ranging from 0 to 500 µM for Ruthenium and 0 to 1000 µM for ligand tests (0, 1, 10, 50, 100, 500, 1000 µm), for Cisplatin from 0 to 100 µM (0.1, 1, 5, 10, 50, 100 µM). Each measurement was done in triplicate and repeated 3 times. The proportion of viable cells was quantified by the MTT assay and after background subtraction relative values compared to the mean of medium controls were calculated. Non-linear regression analyses applying the Hill slope were run in GraphPad 5.0 software.

[7] = tested on: SKOV3cis; experiment: MTT assay (CellTiter96), cytotoxic activity
Experimental: as §2, §3

[8] = tested on: A2780; experiment: MTT assay (CellTiter96), cytotoxic activity; details: 48 h incubation
Experimental: as §2, §3

[9] = tested on: A2780cis; experiment: MTT assay (CellTiter96), cytotoxic activity
Experimental: as §2, §3

[10] = tested on: SKOV3; experiment: MTT assay (CellTiter96), cytotoxic activity; details: 48 h incubation
Experimental: as §2, §3

[11] = tested on: A2780 cells; experiment: Cell death rate, PI staining of live cells (FACS); details: A2780 and SKOV3 cells, 20 µM and 30 µM, 48 h
Experimental: For cell death rate analysis, live cells were stained with PI immediately after 48 h treatment. […] Furthermore, resistant cells show much lower Cisplatin-induced cell death rates (Figure 7). […] In A2780 cells, both compounds trigger similar cell death rates in parental and Cisplatin-resistant cells. Cisplatin-resistant SKOV3 are much more sensitive to both ruthenium(II) complexes than the parental counterpart, with a median of 3.3-fold higher sensitivity.
as §1

[(η^6-p-cymene)Ru(1-(3-ethoxyphenyl)-3-(methylthio)-3-thioxo-prop-1-en-1-olate-O,S)] [Ru14]
mean IC50 value / cytotoxicity for all cancer cell lines compared with Cisplatin [1]: lower | IC50 [2]: > 100 µM | IC50 [3]: 16.7 µM | IC50 [4]: > 100 µM | effect on cell cycle distribution [5]: no or only a minor effect on cell cycle distribution | IC50 [6]: 2.7 µM | IC50 ([7]; Cisplatin resistant SKOV3, MTT assay, 48 h incubation): 5.1 µM | RF SKOV3 (resistance factor) ([7]; SKOV3cis vs SKOV3): 1.5 | IC50 [8]: 1.9 µM | RF A2780 (resistance factor) ([9]; A2780cis vs A2780): 1.5 | IC50 ([9]; Cisplatin resistant A2780, MTT assay, 48 h incubation): 2.9 µM | IC50 [10]: 3.5 µM | capacity to induce cell death in vitro [11]: high capacity to induce cell death
